{"source": "patent US11911610B2", "about": "“Methods for restoring sensitivity to TTFields in TTFields-resistant cancer cells with PTGER3 inhibitors” (Novocure GmbH, priority 2019, dated 2024)", "key": {"U87R resistant cells": {"system": "U87R resistant cells", "experiment": "Live cell count of TTFields-resistant GBM cells treated with drug with or without TTFields for 3 days", "assay_type": "cell-based, human", "details": "for sensitivity to TTFields: inhibitor + TTFields 200 kHz compared with TTFields alone, FIG. 14", "experimental": "(§1) For the experiments summarized in FIG. 13, resistant human GBM cells were treated with either vehicle control or aspirin and with or without TTFields for 3 days. Drug was replenished daily. The numbers of live cells were quantified using a cell counter at the end point.\nPTGER3 inhibitors can restore sensitivity to TTFields."}, "[1]": {"system": "human GBM cell lines (LN827)", "experiment": "Resistant cell line generation experiment with PTGER3 inhibitor (FIG. 16)", "assay_type": "cell-based", "details": "L798,106 + TTFields, 5 cycles of 7 days", "from_the_text": "For the experiments summarized in FIG. 2, TTFields-resistant human GBM cell lines were generated by seeding LN827 cells at a density of 10,000/ml and treated with TTFields for in repeated 1-week cycles at a frequency of 200 kHz. For each cycle, cells were counted on day 2, day 4 and day 7. At the end of each cycle, the cells were re-seeded at the same density as on day 0, harvested and processed for RNAseq and cryopreservation for future analysis. Resistant cells emerged after at least four weeks of TTFields treatment.\nThe resistant cell line generation experiment using the original human GBM cell lines from FIG. 2 was repeated with two more groups that included a PTGER3 inhibitor (L798,106 and L798,106+TTFields) (FIG. 16). […] Cells were seeded and counted at the same cell density and time points. Each cycle lasts for 7 days within total of 5 cycles."}, "LN428R resistant cells": {"system": "LN428R resistant cells", "experiment": "Live cell count of TTFields-resistant GBM cells treated with drug with or without TTFields for 3 days", "assay_type": "cell-based, human", "details": "aspirin + TTFields, drug replenished daily, reduced from 85 k/dish, TTFields alone 70 k/dish", "experimental": "as §1"}, "LN827R cells": {"system": "LN827R cells", "experiment": "Live cell count of TTFields-resistant GBM cells treated with drug with or without TTFields for 3 days", "assay_type": "cell-based, human", "details": "aspirin + TTFields, drug replenished daily, reduced from around 125 k/dish, TTFields alone increased count slightly", "experimental": "as §1"}, "[2]": {"system": "TTFields-resistant GBM cells (U87R, L428R, and LN827R)", "experiment": "Reduction of resistance to TTFields in TTFields-resistant GBM cells (FIG. 13)", "assay_type": "cell-based, human", "details": "Aspirin+TTFields compared with Vehicle+TTFields, 3 days", "experimental": "as §1"}}, "data": [{"smiles": "Cc1cn(Cc2ccc(Cl)cc2Cl)c2c(/C=C/C(=O)NS(=O)(=O)c3cc(Cl)c(Cl)s3)cc(F)cc12", "note": "[DG041]", "values": [{"measurement": "live cell count", "setting": "U87R resistant cells; DG041 50 nM + TTFields 200 kHz, reduced from around 160 k/dish, TTFields alone 100 k/dish", "result": "around 40 k/dish"}, {"measurement": "sensitivity to TTFields", "setting": "U87R resistant cells", "result": "restores sensitivity to TTFields"}]}, {"smiles": "COc1ccc(Br)cc1S(=O)(=O)NC(=O)/C=C/c1ccccc1Cc1ccc2ccccc2c1", "note": "[L798,106]", "values": [{"measurement": "development of resistance to TTFields", "setting": "[1]", "result": "prevented the development of resistance to TTFields"}, {"measurement": "live cell count", "setting": "U87R resistant cells; L798,106 0.5 μM + TTFields 200 kHz, reduced from around 200 k/dish, TTFields alone 125 k/dish", "result": 25, "unit": "k/dish"}, {"measurement": "sensitivity to TTFields", "setting": "U87R resistant cells", "result": "restores sensitivity to TTFields"}]}, {"smiles": "CC(=O)Oc1ccccc1C(=O)O", "note": "[aspirin]", "values": [{"measurement": "live cell count", "setting": "LN428R resistant cells", "result": 40, "unit": "k/dish"}, {"measurement": "live cell count", "setting": "LN827R cells", "result": 90, "unit": "k/dish"}, {"measurement": "resistance to TTFields", "setting": "[2]", "result": "significantly reduces resistance to TTFields"}, {"measurement": "live cell count", "setting": "U87R resistant cells; aspirin + TTFields, drug replenished daily, reduced from 150 k/dish, TTFields alone 125 k/dish", "result": 100, "unit": "k/dish"}]}]}
